Counter-ions that a name gives are not always drawn.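 How tested: cells in 96-well plates exposed to compound for 48 hours at five concentrations. GI50 marks 50% less growth.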 Active and inactive are the calls of the source. No stated cut-off is given here; in the data, active = GI50 up to about 1.1 µM and inactive = higher.
Key:
Experiment in all cases: growth of human tumour cells (NCI), 48 h
[1] = test system: BT-549
[2] = test system: CAKI-1
[3] = test system: DU-145
[4] = test system: EKVX
[5] = test system: HCT-15
[6] = test system: IGROV-1
[7] = test system: KM12
[8] = test system: NCI-H226
[9] = test system: OVCAR-3
[10] = test system: OVCAR-4
[11] = test system: OVCAR-5
[12] = test system: SF-268
[13] = test system: SN12C
[14] = test system: SNB-75
[15] = test system: SW-620
[16] = test system: UACC-257
[17] = test system: UACC-62
[18] = test system: HOP-92
[19] = test system: NCI-H460
[20] = test system: SR

| SMILES | GI50 [1] | GI50 [2] | GI50 [3] | GI50 [4] | GI50 [5] [µM] | GI50 [6] | GI50 [7] | GI50 [8] | GI50 [9] | GI50 [10] | GI50 [11] | GI50 [12] | GI50 [13] | GI50 [14] | GI50 [15] | GI50 [16] | GI50 [17] | GI50 [18] | GI50 [19] | GI50 [20] |
| --- | --- | --- | --- | --- | --- | --- | --- | --- | --- | --- | --- | --- | --- | --- | --- | --- | --- | --- | --- | --- |
| CC(=O)OC12c3ccccc3C(c3ccccc31)C1C(=O)N(c3ccccn3)C(=O)C12 (stereo unspecified) | 38.8 µM (inactive) | > 100 µM (inactive) | > 100 µM (inactive) | > 100 µM (inactive) | 69.3 | > 100 µM (inactive) | 50.1 µM (inactive) | > 100 µM (inactive) | 28.4 µM (inactive) | > 100 µM (inactive) | > 100 µM (inactive) | 87.3 µM (inactive) | 81.1 µM (inactive) | 23.8 µM (inactive) | > 100 µM (inactive) | 31.3 µM (inactive) | 91.6 µM (inactive) |  |  |  |
| C=CCOC(=O)CC[N+]1=CCC(c2ccccc2)(c2ccccc2)O1 | > 100 µM (inactive) | > 100 µM (inactive) | > 100 µM (inactive) | > 100 µM (inactive) | > 100 | > 100 µM (inactive) | > 100 µM (inactive) | > 100 µM (inactive) | > 100 µM (inactive) | > 100 µM (inactive) | > 100 µM (inactive) | > 100 µM (inactive) | > 100 µM (inactive) |  | > 100 µM (inactive) | > 100 µM (inactive) | > 100 µM (inactive) | > 100 µM (inactive) | > 100 µM (inactive) |  |
| CN(C)C(=O)C(F)(F)C(c1ccccc1Br)C1C(=O)N(C)C(=O)N(C)C1=O (stereo unspecified) | > 100 µM (inactive) | > 100 µM (inactive) | > 100 µM (inactive) | > 100 µM (inactive) | > 100 |  | > 100 µM (inactive) | > 100 µM (inactive) | > 100 µM (inactive) | > 100 µM (inactive) | > 100 µM (inactive) | > 100 µM (inactive) |  | > 100 µM (inactive) | > 100 µM (inactive) | > 100 µM (inactive) | > 100 µM (inactive) | > 100 µM (inactive) | > 100 µM (inactive) |  |
| OC(c1ccc(F)cc1)(c1ccc(F)cc1)C1CC1 | 19.2 µM (inactive) | 25.3 µM (inactive) | 49.9 µM (inactive) | 29.2 µM (inactive) | 23 | 28.9 µM (inactive) | 26.7 µM (inactive) | 26.6 µM (inactive) | 32.5 µM (inactive) | 26.2 µM (inactive) | 37.3 µM (inactive) | 32.2 µM (inactive) | 20.9 µM (inactive) | 50.6 µM (inactive) | 25.6 µM (inactive) | 26 µM (inactive) | 23.9 µM (inactive) | 33.8 µM (inactive) | 29 µM (inactive) |  |
| CCCCCc1cc2cc3c(c(O)c2c(=O)[nH]1)C1(CC3)C(=O)c2c(O)c3c(c(O)c2C1=O)C(=O)C(OC)=CC3=O (stereo unspecified) | 1.08 µM (active) | 0.259 µM (active) | 1.05 µM (active) | 0.916 µM (active) | 0.388 | 1.28 µM (inactive) | 1.26 µM (inactive) | 1.45 µM (inactive) | 0.44 µM (active) | 0.822 µM (active) | 2.98 µM (inactive) | 0.946 µM (active) | 0.877 µM (active) | 1.58 µM (inactive) | 0.442 µM (active) | 0.444 µM (active) | 1.24 µM (inactive) | 0.263 µM (active) | 0.863 µM (active) |  |
| Cc1n[nH]c(=O)n1/N=C/c1cccs1 | > 100 µM (inactive) | > 100 µM (inactive) | > 100 µM (inactive) | > 100 µM (inactive) | > 100 |  | > 100 µM (inactive) | > 100 µM (inactive) | > 100 µM (inactive) | > 100 µM (inactive) | > 100 µM (inactive) | > 100 µM (inactive) | > 100 µM (inactive) | > 100 µM (inactive) | > 100 µM (inactive) | > 100 µM (inactive) | > 100 µM (inactive) |  | > 100 µM (inactive) |  |
| CC(=O)OCc1cc(=O)n2c([nH]c3ccccc32)c1C#N | > 100 µM (inactive) | 28.2 µM (inactive) | 68.7 µM (inactive) | 72.3 µM (inactive) | 21.8 | 55 µM (inactive) |  | > 100 µM (inactive) | 43.2 µM (inactive) | 1.63 µM (inactive) | > 100 µM (inactive) |  | 67 µM (inactive) |  | 96.6 µM (inactive) | > 100 µM (inactive) | 59.7 µM (inactive) | 84.3 µM (inactive) | 18.6 µM (inactive) |  |
| CC(C)(C)C(=O)OC(N)/C=C/c1ccccc1 (stereo unspecified) | > 100 µM (inactive) | > 100 µM (inactive) |  | > 100 µM (inactive) | > 100 | > 100 µM (inactive) | > 100 µM (inactive) | > 100 µM (inactive) | > 100 µM (inactive) | > 100 µM (inactive) | > 100 µM (inactive) |  | > 100 µM (inactive) | > 100 µM (inactive) | > 100 µM (inactive) | > 100 µM (inactive) | > 100 µM (inactive) | > 100 µM (inactive) | > 100 µM (inactive) | 94 µM (inactive) |
| Cn1c(COC(=O)NC2CCCCC2)c(COC(=O)NC2CCCCC2)c2ccc3cc(Cl)c(Cl)cc3c21 | 16.4 µM (inactive) | 2.62 µM (inactive) | 28.6 µM (inactive) | 27.7 µM (inactive) | 12.2 | 17 µM (inactive) | 15.6 µM (inactive) | 34.2 µM (inactive) | 15.1 µM (inactive) |  | 16 µM (inactive) | 6.4 µM (inactive) | 11.7 µM (inactive) | 8.39 µM (inactive) | 6.79 µM (inactive) | 14.5 µM (inactive) | 11 µM (inactive) | 4.88 µM (inactive) | 4.41 µM (inactive) |  |
| C=C1C[C@@H]2CC[C@@]34C[C@H]5O[C@H]6[C@@H](O3)[C@H]3O[C@H](CC[C@@H]3O[C@H]6[C@H]5O4)CC(=O)C[C@@H]3[C@@H](OC)[C@@H](C[C@H](O)CN)O[C@H]3C[C@H]3O[C@@H](CC[C@@H]1O2)C[C@@H](C)C3=C [ERIBULIN MESYLATE] | 0.00703 µM (active) | 0.0179 µM (active) | 0.00118 µM (active) | 0.007 µM (active) | 0.053 | 0.00151 µM (active) | 0.000326 µM (active) | 0.000522 µM (active) | 9.59e-05 µM (active) | 0.00319 µM (active) |  | 0.00267 µM (active) | 0.00361 µM (active) |  | 0.00241 µM (active) |  | 0.000711 µM (active) | 0.00352 µM (active) | 0.00172 µM (active) |  |
| [O-][n+]1c2cccc(O)c2[n+]([O-])c2cccc(O)c21 | 46 µM (inactive) | 25.1 µM (inactive) | > 100 µM (inactive) | 23.8 µM (inactive) | 46.6 | 6.53 µM (inactive) | 37.5 µM (inactive) |  | 29.2 µM (inactive) | 42.7 µM (inactive) | > 100 µM (inactive) | 31.8 µM (inactive) |  | > 100 µM (inactive) | 47.9 µM (inactive) | 37.9 µM (inactive) |  | 22.7 µM (inactive) | 30.1 µM (inactive) |  |
